From PubChem BioAssay (NCI)
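How tested: cells in 96-well plates exposed to compound for 48 hours at five concentrations. GI50: concentration for 50% inhibition of growth. The concentration for full growth arrest is given as TGI.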

How the values were obtained:
Assay in all cases: NCI-60 cell line screen, 48 h
A549 NSCLC = test system: A549 NSCLC
CAKI-1 renal = test system: CAKI-1 renal
HCT-15 colon = test system: HCT-15 colon
HOP-62 NSCLC = test system: HOP-62 NSCLC
M14 melanoma = test system: M14 melanoma
MALME-3M melanoma = test system: MALME-3M melanoma
NCI-H460 lung = test system: NCI-H460 lung
NCI-H522 lung = test system: NCI-H522 lung
SK-OV-3 ovarian = test system: SK-OV-3 ovarian
UACC-257 melanoma = test system: UACC-257 melanoma

Structure (SMILES)	TGI (A549 NSCLC) [µM]	TGI (CAKI-1 renal) [µM]	TGI (HCT-15 colon) [µM]	TGI (HOP-62 NSCLC) [µM]	TGI (M14 melanoma) [µM]	TGI (MALME-3M melanoma) [µM]	TGI (NCI-H460 lung) [µM]	TGI (NCI-H522 lung) [µM]	TGI (SK-OV-3 ovarian) [µM]	TGI (UACC-257 melanoma) [µM]	GI50 (A549 NSCLC) [µM]	GI50 (CAKI-1 renal) [µM]	GI50 (HCT-15 colon) [µM]	GI50 (HOP-62 NSCLC) [µM]	GI50 (M14 melanoma) [µM]	GI50 (MALME-3M melanoma) [µM]	GI50 (NCI-H460 lung) [µM]	GI50 (NCI-H522 lung) [µM]	GI50 (SK-OV-3 ovarian) [µM]	GI50 (UACC-257 melanoma) [µM]
CN1C=C(C(N)=O)Cc2ccsc21	> 100	> 100	> 100	> 100	> 100	> 100	> 100	> 100	> 100	> 100	–	–	–	–	–	–	–	–	–	–
CC12CC(Br)(Br)C(=O)C3C1CCCC32	36.5	6.05	15.7	28.5	10.1	9.5	31.7	7.84	30.8	22.2	–	–	–	–	–	–	–	–	–	–
COc1cc(/C=C/C(=O)c2cccc(-n3cc(-c4ccccc4)[nH]c3=O)c2)ccc1O	17.8	15.2	14.3	15.3	18	17.1	8.68	6.12	35.5	17.1	4.18	4.47	2.9	4.6	3.57	5.25	3.01	1.78	4.02	4.88
O=NN(CC(=O)NNc1ccccc1)CC(=O)NNc1ccccc1	> 100	> 100	> 100	> 100	> 100	> 100	> 100	> 100	> 100	> 100	> 23.1	3.77	12.3	> 100	3.8	42	4.34	1.27	> 100	22.4
Nc1ncnc2occ(-c3ccc(NC(=O)Nc4cccc(C(F)(F)F)c4)cc3)c12	14.9	13	18.2	10	9.19	13.3	9.3	8.92	17.9	8.86	4.73	2.29	4.24	5.09	3.2	5.74	3.46	4.18	4.91	4.24
O=C1C=CC(=O)N1c1ccc2ccccc2c1	43.2	17.8	33.1	31.1	28.4	8.19	37.9	3.42	78.5	22.7	20.3	4.65	16.5	16.2	14.5	2.98	17.5	1.74	27.4	10.5
CN(C)Cc1c[nH]c2nc[nH]c(=O)c12	> 100	> 100	> 100	> 100	> 100	> 100	61	> 100	> 100	52	–	–	–	–	–	–	–	–	–	–
